Data: US20110124589A1, “INHALED FOSFOMYCIN/TOBRAMYCIN FOR THE TREATMENT OF CHRONIC OBSTRUCTIVE PULMONARY DISEASE” (Gilead Sciences, Inc., priority 2009, published 2011)
≈ marks a conversion by molar mass, not a printed value. Read-outs that look alike come from different tables or passages of the source.

What was measured:
P. aeruginosa C177 = experiment: Rat bacterial pneumonia model; details: =10 mg/kg intratracheally (FIG. 12)
Experimental: Animals were handled according to the guidelines for the Care and use of Laboratory Animals. […] All animal protocols were approved by an IRB/Ethics Committee. Male Sprague-Dawley rats (180-200 g) were obtained from Charles River Laboratories (Hollister, Calif., USA) and acclimatized for 5 days prior to use. Animals were housed individually in ventilated cages, fed Purina Lab Diet ad libitum and allowed free access to water.
Antibiotic efficacy was determined using a rat bacterial pneumonia model. […] Rats were anaesthetized with isoflurane, and ˜10^3 cfu of P. aeruginosa C177 in 2% agar solution were instilled into the lungs with an oral gavage needle. The inoculum was deposited at the first bifurcation and distributed throughout the lungs by inspiration. Animals were allowed to recover for 18 hr post-infection. Each experiment consisted of pre-treatment (n=5-7), saline control with isoflurane, and 100 μL of antibiotic solution or saline was instilled in the trachea using a Microsprayer™ (Penn-Century In., Philadelphia, Pa., USA). Antibiotics were administered intratracheally twice daily for 3 days.
Animals were euthanized by intraperitoneal administration of sodium pentobarbital. The pre-treatment control group was harvested 18 hr post-infection, and the saline and treatment groups 18 hr after the last antibiotic exposure. Lungs were removed aseptically, homogenized in sterile normal saline and viable bacteria determined by the colony count method. Statistical differences between the saline control group and treatment groups were evaluated by the Mann-Whitney Rank Sum Test using GraphPad Prism® software package version 3.03 (GraphPad Software, Inc., San Diego, Calif., USA).

P. aeruginosa [1] = experiment: MIC, agar-plate dilution with 2% porcine gastric mucin (Method B); assay type: cell-based; details: Pseudomonas aeruginosa; 100 P. aeruginosa strains from cystic fibrosis lung sputum; 2% mucin
Experimental: Bacterial strains were streaked onto […] […] Louis, Mo.). […] Louis, Mo.). […] Methodologies were identical to that described in Method A above, with the exception that 2% (weight/volume) porcine gastric mucin (Sigma Chemical Co., St. Louis, Mo.) was added to the MHA prior to autoclaving.

M. catarrhalis [2] = experiment: MIC of recent clinical isolates, agar dilution (CMI study); assay type: cell-based; details: Moraxella catarrhalis; 103 isolates
S. aureus [3] = experiment: as above; assay type: cell-based; details: Staphylococcus aureus
E. coli = details: cited from earlier work
H. influenzae [4] = experiment: MIC, agar-plate dilution (Method A); details: Haemophilus influenzae
Experimental: (§1) The efficacy of antibiotics and antibiotic combinations against Gram-positive and Gram-negative bacteria representative of species that cause respiratory infections were evaluated in MIC assays. […] H. influenzae, M. catarrhalis, and S. aureus, were isolated from respiratory tract infections. E. coli ATCC 25922, P. aeruginosa ATCC 27853, and S. aureus ATCC 29213 were used as quality control stains.
(§2) Method A: The MICs of fosfomycin alone, tobramycin alone, or combinations of fosfomycin plus tobramycin were determined by the agar-plate dilution method according to NCCLS guidelines (NCCLS, 2003). Bacterial strains were streaked onto Trypic Soy Agar plates (PML Microbiologicals, Wilsonville, Oreg.) containing 5% defibrinated sheep blood (hereafter referred to as blood agar plates) and incubated overnight at 35° C. Two to three bacterial colonies from the overnight cultures were inoculated into 3 mL of sterile normal saline, vortexed briefly, and adjusted to a 0.5 McFarland standard (NCCLS, 2003). The bacterial suspension was diluted 1:40 in sterile normal saline and served as the inoculum. Mueller-Hinton agar plates (hereafter referred to as MHA) were prepared by combining 16 g of agarose (Becton-Dickinson, Sparks, Md.), 22 g of Mueller-Hinton broth powder (Becton-Dickinson, Sparks, Md.), and adjusted to 1 L with distilled water. The agar was sterilized by autoclaving, cooled to 55° C., and supplemented with 25 μg/mL of glucose-6-phosphate (Sigma-Aldrich, St. Louis, Mo.). Twenty-five mL of cooled agar was aliquoted into 50 mL conical tubes and supplemented with appropriate concentrations of antibiotic to achieve concentrations ranging from 0.06 μg/mL to 512 μg/mL. After gently mixing the agar and antibiotic, the suspension was poured into sterile 100 mm petri dishes and allowed to solidify at room temperature. The antibiotic agar plates were inoculated with approximately 2×10^4 CFU/spot with a 48-point inoculator (Sigma-Aldrich, St. Louis, Mo.). The MIC was defined as the lowest concentration of antibiotic (s) that prevented visible growth after incubation for 18-20 hours at 35° C.

S. pyogenes = details: 5 isolates; broth microdilution; cited from earlier work
H. influenzae [5] = experiment: MIC of recent clinical isolates, agar dilution (CMI study); assay type: cell-based; details: Haemophilus influenzae
P. aeruginosa [6] = details: agar dilution, cited from earlier work
M. catarrhalis [7] = details: 5 isolates; agar dilution; cited from earlier work
S. aureus [8] = details: cited from earlier work
H. influenzae [9] = details: cited from earlier work
[10] = Sputum drug concentrations following aerosolization of FTI; assay type: in vivo, human; details: for Cmax: human, sputum, inhaled
Experimental: In order to assess the amount of drug delivered to the respiratory track, drug concentration was measured in expectorated sputum for patients with CF or bronchiectasis. The fosfomycin and tobramycin range for patient type and dose was 1751-2974 μg/g and 326-881 μg/g, respectively.

P. aeruginosa ATCC 27853 [11] = experiment: MBC/MIC, broth microdilution
Experimental: The MBCs of fosfomycin and tobramycin alone for P. aeruginosa ATCC 27853, E. coli ATCC 25922, and S. aureus ATCC 29213 were determined by the broth microdilution method according to NCCLS standards (NCCLS, 1999). […] Bacterial strains were streaked onto blood agar plates and incubated at 35° C. for 18-24 hours. Two to three bacterial colonies from the overnight cultures were inoculated into 3 mL of sterile normal saline, vortexed briefly, and adjusted to a 0.5 McFarland standard (NCCLS, 2003). Fifty microliters of bacterial inoculum (approximately 2×10^5 CFU/mL) was pipeted into individual wells of 96-well plates containing 50 μl of CAMHB (Remel, Lenexa, Kanas) supplemented with 2-fold dilutions of antibiotics ranging in concentration from 0.125 μg/mL to 128 μg/mL. […] The contents of wells showing no growth (MIC and above) were mixed with a pipetor and duplicate 10 μl samples spread onto blood agar plates. Culture plates were incubated at 35° C. for 18-24 hours and the number of bacterial colonies on each plate enumerated manually. Rejection values were determined by NCCLS methods which considers the final inoculum size, single or double sampling, pipetting error, and the Poisson distributuion of sample responses (NCCLS, 1999). […] The MBC/MIC ratios were calculated by dividing the MBC by the MIC.

S. aureus [12] = experiment: MIC, agar-plate dilution (Method A)
Experimental: as §1, §2

S. pneumoniae [13] = experiment: MIC of recent clinical isolates, agar dilution (CMI study); assay type: cell-based
H. influenzae [14] = details: 16 isolates; agar dilution; cited from earlier work
S. pneumoniae [15] = experiment: MIC, agar-plate dilution (Method A); details: Streptococcus pneumoniae
Experimental: as §1, §2

Klebsiella spp. [16] = details: cited from earlier work
Klebsiella spp. [17] = details: 22 isolates; broth microdilution; cited from earlier work
B. cepacia complex = details: 20 isolates; agar dilution; cited from earlier work
S. pneumoniae [18] = details: 8 isolates; agar dilution; cited from earlier work
P. aeuriginosa = experiment: Dose-response time-kill studies in 2% mucin; assay type: cell-based; details: 2% mucin (FIGS. 4-6)
P. aeruginosa ATCC 27853 [19] = experiment: Time-kill experiments in 2% porcine gastric mucin; assay type: cell-based; details: 2% mucin
Experimental: These studies were previously reported in PCT Publication no. WO2005/110022 to Gilead Sciences, Inc. (formerly Carus Pharma). Two to three bacterial colonies were inoculated into 10 mL CAMHB and incubated at 35° C. in a shaking water bath (250 rpm) for 18-24 hours. A 1:40 dilution of the overnight culture was made in 10 mL of fresh CAMHB and incubated at 35° C. in a shaking water bath (250 rpm) for 1-2 hours. […] Ten milliliter aliquots were then pipeted into 50 mL conical tubes. […] The killing activity of fosfomycin plus tobramycin was also compared to the killing activity of the individual components. […] A no drug control was conducted in each experiment. […] Bacterial killing was determined at 0, 1, 2, 4, 6, and 24 hours by making 10-fold serial dilutions of the cultures in sterile normal saline, and spreading 100 μl aliquots on blood agar plates. […] The limit of detection for the colony counting method was 1 Log10. Time-kill curves were constructed by plotting the Log10 number of CFU/mL culture versus time.

C[C@@H]1O[C@@H]1P(=O)(O)O [Fosfomycin]
reduction in cfu/lung (P. aeruginosa C177): not observed | MIC50 (P. aeruginosa [1]): 64 mg/L (≈ 464 µM) | MIC90 (P. aeruginosa [1]): 128 mg/L (≈ 927 µM) | MIC50 (M. catarrhalis [2]): 8 mg/L | MIC90 (M. catarrhalis [2]): 16 mg/L | MIC50 (S. aureus [3]; MRSA, 103 isolates): 4 mg/L | MIC90 (S. aureus [3]; MRSA, 103 isolates): 8 mg/L | MIC50 (S. aureus [3]; MSSA, 104 isolates): 4 mg/L | MIC90 (S. aureus [3]; MSSA, 104 isolates): 4 mg/L | Range of MBC/MIC (E. coli; 10 strains): 1-8 | strains against which bactericidal (E. coli): 90% | MIC (H. influenzae [4]): 8 mg/L (≈ 57.9 µM) | MIC (H. influenzae [4]; strain COR-049): 128 mg/L (≈ 927 µM) | MIC range (S. pyogenes): 16 to 64 mg/L | MIC50 (H. influenzae [5]; β-lactamase neg, 62 isolates): 0.25 mg/L | MIC90 (H. influenzae [5]; β-lactamase neg, 62 isolates): 8 mg/L | MIC50 (H. influenzae [5]; β-lactamase pos, 39 isolates): 0.5 mg/L | MIC90 (H. influenzae [5]; β-lactamase pos, 39 isolates): 2 mg/L | MIC50 (P. aeruginosa [6]; CF, 100 isolates): 64 mg/L (≈ 464 µM) | MIC90 (P. aeruginosa [6]; CF, 100 isolates): 512 mg/L (≈ 3710 µM) | MIC50 (P. aeruginosa [6]; non-CF, 60 isolates): 32 mg/L (≈ 232 µM) | MIC90 (P. aeruginosa [6]; non-CF, 60 isolates): 128 mg/L (≈ 927 µM) | MIC range (M. catarrhalis [7]): 4 to 16 mg/L | Range of MBC/MIC (S. aureus [8]; 10 strains): 1-8 | strains against which bactericidal (S. aureus [8]): 80% | Range of MBC/MIC (H. influenzae [9]; 6 strains): 1-8 | strains against which bactericidal (H. influenzae [9]): 83% | sputum concentration range for patient type and dose ([10]; both FTI doses, CF and bronchiectasis patients): 1751 to 2974 µg/g | Cmax ([10]; 20 mg, patients with Bronchiectasis, aerosolized 80:20 mg FTI): 1.75e+06 ng/g | Cmax ([10]; 20 mg, patients with Cystic Fibrosis, aerosolized 80:20 mg FTI): 2.07e+06 ng/g | Cmax ([10]; 40 mg, patients with Bronchiectasis, aerosolized 160:40 mg FTI): 1.98e+06 ng/g | Cmax ([10]; 40 mg, patients with Cystic Fibrosis, aerosolized 160:40 mg FTI): 2.97e+06 ng/g | MBC/MIC (P. aeruginosa ATCC 27853 [11]): =8 | MIC (S. aureus [12]; Staphylococcus aureus): 2 mg/L (≈ 14.5 µM) | MIC (S. aureus [12]; Staphylococcus aureus, MRSA): 4 mg/L (≈ 29 µM) | MIC (S. aureus [12]; Staphylococcus aureus, MSSA): 1 mg/L (≈ 7.24 µM) | MIC (S. aureus [12]; strain COR-060 (GISA)): 2 mg/L (≈ 14.5 µM) | MIC50 (S. pneumoniae [13]; Penicillin resistant, 32 isolates): 16 mg/L | MIC90 (S. pneumoniae [13]; Streptococcus pneumoniae, Penicillin resistant, 32 isolates): 32 mg/L | MIC90 (S. pneumoniae [13]; Streptococcus pneumoniae, penicillin suscept., 39 isolates): 16 mg/L | MIC50 (S. pneumoniae [13]; Streptococcus pneumoniae, penicillin suscept., 39 isolates, read-out: MIC50): 16 mg/L | MIC50 (H. influenzae [14]): 0.5 mg/L (≈ 3.62 µM) | MIC90 (H. influenzae [14]): 2 mg/L (≈ 14.5 µM) | MIC range (H. influenzae [14]): 0.25 to 4 mg/L | MIC (S. pneumoniae [15]; strain COR-061): 32 mg/L (≈ 232 µM) | MIC (S. pneumoniae [15]; strain COR-068): 8 mg/L (≈ 57.9 µM) | Range of MBC/MIC (Klebsiella spp. [16]; 5 strains): 1-4 | strains against which bactericidal (Klebsiella spp. [16]): 100% | MIC50 (Klebsiella spp. [17]): 4 mg/L (≈ 29 µM) | MIC90 (Klebsiella spp. [17]): 16 mg/L (≈ 116 µM) | MIC range (Klebsiella spp. [17]): 0.5-16^ mg/L | MIC50 (B. cepacia complex): >512 mg/L | MIC90 (B. cepacia complex): >512 mg/L | MIC range (S. pneumoniae [18]): 8 to 32 mg/L | bactericidal or bacteriostatic (P. aeuriginosa): bacteriostatic | time-dependent or concentration-dependent killing (P. aeuriginosa): time-dependent killing | activity at 24 hours in time-kill curves (FIG. 2) (P. aeruginosa ATCC 27853 [19]; 12.8 μg/mL fosfomycin, 3.2 μg/mL tobramycin, or both, 24 hours): re-growth was observed | killing activity in time-kill curves (FIG. 2) (P. aeruginosa ATCC 27853 [19]; 4×MIC: 12.8 μg/mL fosfomycin + 3.2 μg/mL tobramycin vs the components alone): bacteriostatic activity | killing activity in time-kill curves (FIG. 1) (P. aeruginosa ATCC 27853 [19]; 9:1 combination (fosfomycin 14.4 μg/mL + tobramycin 1.6 μg/mL) vs the components alone): bacteriostatic killing
